Data published in article PMC8401933 (Molecules, 2021).

Legend:
BIKE = biological target: T1, BIKE (Homo sapiens, UniProt Q9NSY1); assay: KINOMEscan binding; settings: read-out: Percent Control
T1 construct: purchased Eurofins DiscoverX KINOMEscan

PIP5K1A = biological target: T2, PIP5K1A (Homo sapiens, UniProt Q99755); assay: KINOMEscan binding; settings: read-out: Percent Control
T2 construct: purchased Eurofins DiscoverX KINOMEscan

FLT3(ITD,F691L) = assay: KINOMEscan binding; set-up: species or system human; settings: 10 μM
AXL = biological target: T3, AXL (Homo sapiens, UniProt P30530); assay: KINOMEscan binding; settings: read-out: Percent Control
T3 construct: purchased Eurofins DiscoverX KINOMEscan

MST1R = biological target: T4, MST1R (Homo sapiens, UniProt Q04912); assay: KINOMEscan binding; settings: read-out: Percent Control
T4 construct: purchased Eurofins DiscoverX KINOMEscan

ANKK1 = biological target: T5, ANKK1 (Homo sapiens, UniProt Q8NFD2); assay: KINOMEscan binding; settings: read-out: Percent Control
T5 construct: purchased Eurofins DiscoverX KINOMEscan

MST3 = biological target: T6, MST3 (Homo sapiens, UniProt Q9Y6E0); assay: KINOMEscan binding; settings: read-out: Percent Control
T6 construct: purchased Eurofins DiscoverX KINOMEscan

SIK = biological target: T7, SIK (Homo sapiens, UniProt P57059); assay: KINOMEscan binding; settings: read-out: Percent Control
T7 construct: purchased Eurofins DiscoverX KINOMEscan

AMPK-alpha1 = biological target: T8, AMPK-alpha1 (Homo sapiens, UniProt Q13131); assay: KINOMEscan binding; settings: read-out: Percent Control
T8 construct: purchased Eurofins DiscoverX KINOMEscan

DCAMKL1 = biological target: T9, DCAMKL1 (Homo sapiens, UniProt O15075); assay: KINOMEscan binding; settings: read-out: Percent Control
T9 construct: purchased Eurofins DiscoverX KINOMEscan

PAK2 = biological target: T10, PAK2 (Homo sapiens, UniProt Q13177); assay: KINOMEscan binding; settings: read-out: Percent Control
T10 construct: purchased Eurofins DiscoverX KINOMEscan

ROS1 = biological target: T11, ROS1 (Homo sapiens, UniProt P08922); assay: KINOMEscan binding; settings: read-out: Percent Control
T11 construct: purchased Eurofins DiscoverX KINOMEscan

CDC2L2 = biological target: T12, CDC2L2 (Homo sapiens, UniProt Q9UQ88); assay: KINOMEscan binding; settings: read-out: Percent Control
T12 construct: purchased Eurofins DiscoverX KINOMEscan

WNK3 = biological target: T13, WNK3 (Homo sapiens, UniProt Q9BYP7); assay: KINOMEscan binding; settings: read-out: Percent Control
T13 construct: purchased Eurofins DiscoverX KINOMEscan

PKNB(M.tuberculosis) = biological target: T14, PKNB(M.tuberculosis) (Mycobacterium tuberculosis, UniProt P9WI81); assay: KINOMEscan binding; settings: read-out: Percent Control
T14 construct: purchased Eurofins DiscoverX KINOMEscan

NIK = biological target: T15, NIK (Homo sapiens, UniProt Q99558); assay: KINOMEscan binding; settings: read-out: Percent Control
T15 construct: purchased Eurofins DiscoverX KINOMEscan

PIK3CA(Q546K) = biological target: T16, PIK3CA(Q546K) (Homo sapiens, UniProt P42336, Q546K); assay: KINOMEscan binding; settings: read-out: Percent Control
T16 construct: purchased Eurofins DiscoverX KINOMEscan

BRAF = biological target: T17, BRAF (Homo sapiens, UniProt P15056); assay: KINOMEscan binding; settings: read-out: Percent Control
T17 construct: purchased Eurofins DiscoverX KINOMEscan

PIK3CA(C420R) = biological target: T18, PIK3CA(C420R) (Homo sapiens, UniProt P42336, C420R); assay: KINOMEscan binding; settings: read-out: Percent Control
T18 construct: purchased Eurofins DiscoverX KINOMEscan

PHKG1 = biological target: T19, PHKG1 (Homo sapiens, UniProt Q16816); assay: KINOMEscan binding; settings: read-out: Percent Control
T19 construct: purchased Eurofins DiscoverX KINOMEscan

WNK2 = biological target: T20, WNK2 (Homo sapiens, UniProt Q9Y3S1); assay: KINOMEscan binding; settings: read-out: Percent Control
T20 construct: purchased Eurofins DiscoverX KINOMEscan

BRSK1 = biological target: T21, BRSK1 (Homo sapiens, UniProt Q8TDC3); assay: KINOMEscan binding; settings: read-out: Percent Control
T21 construct: purchased Eurofins DiscoverX KINOMEscan

INSR = biological target: T22, INSR (Homo sapiens, UniProt P06213); assay: KINOMEscan binding; settings: read-out: Percent Control
T22 construct: purchased Eurofins DiscoverX KINOMEscan

ASK2 = biological target: T23, ASK2 (Homo sapiens, UniProt O95382); assay: KINOMEscan binding; settings: read-out: Percent Control
T23 construct: purchased Eurofins DiscoverX KINOMEscan

BRSK2 = biological target: T24, BRSK2 (Homo sapiens, UniProt Q8IWQ3); assay: KINOMEscan binding; settings: read-out: Percent Control
T24 construct: purchased Eurofins DiscoverX KINOMEscan

[1] = biological target: T25, ABL1(F317L)-nonphosphorylated (Homo sapiens, UniProt P00519, F317L); assay: KINOMEscan binding; settings: read-out: Percent Control
T25 construct: purchased Eurofins DiscoverX KINOMEscan

EPHB2 = biological target: T26, EPHB2 (Homo sapiens, UniProt P29323); assay: KINOMEscan binding; settings: read-out: Percent Control
T26 construct: purchased Eurofins DiscoverX KINOMEscan

DAPK2 = biological target: T27, DAPK2 (Homo sapiens, UniProt Q9UIK4); assay: KINOMEscan binding; settings: read-out: Percent Control
T27 construct: purchased Eurofins DiscoverX KINOMEscan

HIPK3 = biological target: T28, HIPK3 (Homo sapiens, UniProt Q9H422); assay: KINOMEscan binding; settings: read-out: Percent Control
T28 construct: purchased Eurofins DiscoverX KINOMEscan

ICK = biological target: T29, ICK (Homo sapiens, UniProt Q9UPZ9); assay: KINOMEscan binding; settings: read-out: Percent Control
T29 construct: purchased Eurofins DiscoverX KINOMEscan

PIK3CA(I800L) = biological target: T30, PIK3CA(I800L) (Homo sapiens, UniProt P42336, I800L); assay: KINOMEscan binding; settings: read-out: Percent Control
T30 construct: purchased Eurofins DiscoverX KINOMEscan

[2] = biological target: T31, RSK1(Kin.Dom.2-C-terminal) (Homo sapiens, UniProt Q15418); assay: KINOMEscan binding; settings: read-out: Percent Control
T31 construct: RSK1(Kin.Dom.2-C-terminal); purchased Eurofins DiscoverX KINOMEscan

SGK2 = biological target: T32, SGK2 (Homo sapiens, UniProt Q9HBY8); assay: KINOMEscan binding; settings: read-out: Percent Control
T32 construct: purchased Eurofins DiscoverX KINOMEscan

[3] = tested on: Pparg and Cebpa genes in 3T3-L1 cells; assay: qRT-PCR of adipogenic genes during differentiation; assay type: cell-based; settings: 3T3-L1 during differentiation; KD025 5 μM, CX-4945 10 μM, Y-27632 10 μM
Protocol: The preadipocyte 3T3-L1 cell line was kindly provided by Dr. Hyun-Sung Park (University of Seoul) and cultured in Dulbecco’s modified Eagle’s medium (DMEM, Sigma-Aldrich) supplied with 10% heat-inactivated newborn calf serum (Invitrogen, CA, USA), 100 units/mL penicillin, and 100 µg/mL streptomycin (Cellgro, VA, USA). The cells were maintained in an incubator at 37 °C and 5% CO2. To initiate differentiation, the cells were incubated for additional days after 100% confluence and then further incubated in a medium containing fetal bovine serum (FBS) and a differentiation cocktail (DMI, 1 μM dexamethasone, 0.5 mM 3-isobutyl-1-methylxanthine, and 5 μg/mL insulin) as previously described. In brief, at day 3, the culture medium was replaced with DMEM/10%FBS containing 5 µg/mL insulin. Then, growth medium was changed every 2 days.
Total RNA was extracted using easy-BLUE (iNtRON Biotechnology, Dajeon, Korea) in accordance with the manufacturer’s protocol. cDNA was synthesized from 2 µg of total RNA using TOPscript^TM Drymix Kit (Enzynomics, Dajeon, Korea). qRT-PCR was performed using TB Green ® Premix Ex Taq^TM II (Tli RNAse H Plus) (TaKaRa, Japan) with Applied Biosystems QuantStudio™ 1 Real-Time PCR System (Thermo Fisher Scientific, Waltham, MA, USA). Gene expression data were normalized based on the use of the same amount of total RNA samples. The relative fold change of gene expression was calculated using the ∆Ct method.

T5 sequence (Q8NFD2 whole entry): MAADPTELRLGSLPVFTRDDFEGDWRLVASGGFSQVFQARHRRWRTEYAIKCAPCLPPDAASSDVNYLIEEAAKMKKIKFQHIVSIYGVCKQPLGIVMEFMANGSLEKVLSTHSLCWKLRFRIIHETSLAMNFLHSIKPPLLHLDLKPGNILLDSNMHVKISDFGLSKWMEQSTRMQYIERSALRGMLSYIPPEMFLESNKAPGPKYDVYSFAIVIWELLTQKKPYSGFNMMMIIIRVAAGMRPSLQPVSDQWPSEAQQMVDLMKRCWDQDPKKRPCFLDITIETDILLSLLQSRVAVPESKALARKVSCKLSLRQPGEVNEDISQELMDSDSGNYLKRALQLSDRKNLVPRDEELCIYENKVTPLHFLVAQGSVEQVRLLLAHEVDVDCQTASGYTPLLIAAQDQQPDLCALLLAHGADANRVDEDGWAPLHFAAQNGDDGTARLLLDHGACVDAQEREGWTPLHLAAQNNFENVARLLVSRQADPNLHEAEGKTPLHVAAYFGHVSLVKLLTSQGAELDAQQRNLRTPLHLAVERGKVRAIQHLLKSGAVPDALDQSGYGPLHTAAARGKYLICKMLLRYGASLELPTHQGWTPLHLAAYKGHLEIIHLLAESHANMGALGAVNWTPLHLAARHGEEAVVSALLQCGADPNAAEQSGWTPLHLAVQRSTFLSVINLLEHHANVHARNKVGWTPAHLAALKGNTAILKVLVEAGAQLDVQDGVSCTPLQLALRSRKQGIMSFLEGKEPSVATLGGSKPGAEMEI
T6 sequence (Q9Y6E0 whole entry): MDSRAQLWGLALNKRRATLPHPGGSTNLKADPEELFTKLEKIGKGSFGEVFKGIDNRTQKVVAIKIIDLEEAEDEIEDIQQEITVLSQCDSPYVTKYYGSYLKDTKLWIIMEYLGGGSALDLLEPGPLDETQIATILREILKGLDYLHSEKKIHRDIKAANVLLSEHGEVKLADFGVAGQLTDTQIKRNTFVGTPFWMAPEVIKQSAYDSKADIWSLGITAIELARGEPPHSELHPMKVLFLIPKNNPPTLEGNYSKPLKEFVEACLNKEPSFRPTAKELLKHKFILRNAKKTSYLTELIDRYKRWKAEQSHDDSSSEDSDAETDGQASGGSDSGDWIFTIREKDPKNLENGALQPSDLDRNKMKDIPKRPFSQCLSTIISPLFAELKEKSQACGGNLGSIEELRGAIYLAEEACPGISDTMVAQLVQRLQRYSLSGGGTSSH
T1 sequence (Q9NSY1 whole entry): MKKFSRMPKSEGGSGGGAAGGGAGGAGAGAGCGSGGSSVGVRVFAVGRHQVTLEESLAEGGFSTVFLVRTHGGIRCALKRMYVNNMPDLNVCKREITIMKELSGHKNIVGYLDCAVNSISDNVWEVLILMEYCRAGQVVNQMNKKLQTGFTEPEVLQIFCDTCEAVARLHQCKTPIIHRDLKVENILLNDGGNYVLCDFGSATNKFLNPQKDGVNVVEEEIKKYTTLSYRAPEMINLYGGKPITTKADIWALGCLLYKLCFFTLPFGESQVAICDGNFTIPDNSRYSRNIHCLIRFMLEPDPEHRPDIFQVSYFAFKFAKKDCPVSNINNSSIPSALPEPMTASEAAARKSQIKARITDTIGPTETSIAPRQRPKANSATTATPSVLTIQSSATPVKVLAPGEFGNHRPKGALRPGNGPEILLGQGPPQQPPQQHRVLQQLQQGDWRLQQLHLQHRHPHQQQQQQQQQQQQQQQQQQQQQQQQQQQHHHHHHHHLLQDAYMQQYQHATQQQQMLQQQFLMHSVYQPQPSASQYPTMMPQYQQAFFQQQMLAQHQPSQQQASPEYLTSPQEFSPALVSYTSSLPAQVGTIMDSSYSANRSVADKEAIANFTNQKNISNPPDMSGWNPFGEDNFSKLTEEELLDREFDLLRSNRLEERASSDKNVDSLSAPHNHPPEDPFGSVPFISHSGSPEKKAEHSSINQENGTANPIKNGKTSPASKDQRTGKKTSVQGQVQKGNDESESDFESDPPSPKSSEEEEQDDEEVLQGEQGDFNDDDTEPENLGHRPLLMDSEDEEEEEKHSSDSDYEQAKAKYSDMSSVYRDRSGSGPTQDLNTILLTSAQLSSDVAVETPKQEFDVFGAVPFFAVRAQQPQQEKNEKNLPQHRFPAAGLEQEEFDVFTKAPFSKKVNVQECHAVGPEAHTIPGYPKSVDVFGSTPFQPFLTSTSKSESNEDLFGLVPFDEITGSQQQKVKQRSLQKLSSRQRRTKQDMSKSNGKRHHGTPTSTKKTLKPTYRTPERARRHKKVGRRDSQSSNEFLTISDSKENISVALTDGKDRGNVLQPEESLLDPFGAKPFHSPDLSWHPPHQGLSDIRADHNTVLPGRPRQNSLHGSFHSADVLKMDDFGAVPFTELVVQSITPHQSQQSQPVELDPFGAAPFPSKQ
T18 sequence (P42336 whole entry C420R): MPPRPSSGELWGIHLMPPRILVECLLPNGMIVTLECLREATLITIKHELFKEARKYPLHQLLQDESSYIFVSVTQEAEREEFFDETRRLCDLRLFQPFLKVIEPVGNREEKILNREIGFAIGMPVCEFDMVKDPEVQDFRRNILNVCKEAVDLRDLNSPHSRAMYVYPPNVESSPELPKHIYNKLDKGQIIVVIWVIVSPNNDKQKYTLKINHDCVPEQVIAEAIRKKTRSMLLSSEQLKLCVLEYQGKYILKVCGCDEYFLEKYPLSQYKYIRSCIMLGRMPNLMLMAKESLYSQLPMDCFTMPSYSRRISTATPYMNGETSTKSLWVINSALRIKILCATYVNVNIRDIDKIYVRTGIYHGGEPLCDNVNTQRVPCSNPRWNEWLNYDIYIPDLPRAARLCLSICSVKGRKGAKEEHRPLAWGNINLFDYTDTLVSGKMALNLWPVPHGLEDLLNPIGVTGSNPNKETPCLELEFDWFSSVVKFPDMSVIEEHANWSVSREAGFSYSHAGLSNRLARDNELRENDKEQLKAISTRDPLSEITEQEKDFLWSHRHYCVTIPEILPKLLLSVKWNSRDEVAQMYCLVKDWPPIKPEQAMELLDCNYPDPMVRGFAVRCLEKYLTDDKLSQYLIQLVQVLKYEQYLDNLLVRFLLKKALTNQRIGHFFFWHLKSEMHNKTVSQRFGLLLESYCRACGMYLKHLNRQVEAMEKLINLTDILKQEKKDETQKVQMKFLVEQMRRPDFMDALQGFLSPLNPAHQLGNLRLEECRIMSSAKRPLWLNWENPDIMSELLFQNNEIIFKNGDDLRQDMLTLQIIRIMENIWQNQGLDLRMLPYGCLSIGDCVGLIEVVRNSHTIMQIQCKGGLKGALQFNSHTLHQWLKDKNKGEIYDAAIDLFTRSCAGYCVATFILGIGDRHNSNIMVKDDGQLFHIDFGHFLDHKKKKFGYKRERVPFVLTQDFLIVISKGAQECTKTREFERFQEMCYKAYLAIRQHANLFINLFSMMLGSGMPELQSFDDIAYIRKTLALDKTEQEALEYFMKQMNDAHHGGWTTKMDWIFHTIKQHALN
T16 sequence (P42336 whole entry Q546K): as the sequence (P42336 whole entry C420R) above, with R420C, Q546K counted along it
T8 sequence (Q13131 whole entry): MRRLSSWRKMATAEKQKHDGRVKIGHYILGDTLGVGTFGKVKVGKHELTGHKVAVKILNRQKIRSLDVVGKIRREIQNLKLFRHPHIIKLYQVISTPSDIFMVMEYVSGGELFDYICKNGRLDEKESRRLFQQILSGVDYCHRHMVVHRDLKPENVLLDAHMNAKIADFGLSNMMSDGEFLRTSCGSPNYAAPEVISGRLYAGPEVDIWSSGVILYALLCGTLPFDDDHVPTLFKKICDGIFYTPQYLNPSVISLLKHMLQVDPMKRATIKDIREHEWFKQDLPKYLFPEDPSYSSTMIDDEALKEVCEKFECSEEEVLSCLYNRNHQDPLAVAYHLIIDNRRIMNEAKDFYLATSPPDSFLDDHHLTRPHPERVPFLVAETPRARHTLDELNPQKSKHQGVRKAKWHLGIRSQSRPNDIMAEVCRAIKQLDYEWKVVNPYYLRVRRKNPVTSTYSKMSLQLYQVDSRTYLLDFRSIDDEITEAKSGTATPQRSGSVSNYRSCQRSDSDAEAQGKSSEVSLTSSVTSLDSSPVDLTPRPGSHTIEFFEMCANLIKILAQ
T3 sequence (P30530 26-894): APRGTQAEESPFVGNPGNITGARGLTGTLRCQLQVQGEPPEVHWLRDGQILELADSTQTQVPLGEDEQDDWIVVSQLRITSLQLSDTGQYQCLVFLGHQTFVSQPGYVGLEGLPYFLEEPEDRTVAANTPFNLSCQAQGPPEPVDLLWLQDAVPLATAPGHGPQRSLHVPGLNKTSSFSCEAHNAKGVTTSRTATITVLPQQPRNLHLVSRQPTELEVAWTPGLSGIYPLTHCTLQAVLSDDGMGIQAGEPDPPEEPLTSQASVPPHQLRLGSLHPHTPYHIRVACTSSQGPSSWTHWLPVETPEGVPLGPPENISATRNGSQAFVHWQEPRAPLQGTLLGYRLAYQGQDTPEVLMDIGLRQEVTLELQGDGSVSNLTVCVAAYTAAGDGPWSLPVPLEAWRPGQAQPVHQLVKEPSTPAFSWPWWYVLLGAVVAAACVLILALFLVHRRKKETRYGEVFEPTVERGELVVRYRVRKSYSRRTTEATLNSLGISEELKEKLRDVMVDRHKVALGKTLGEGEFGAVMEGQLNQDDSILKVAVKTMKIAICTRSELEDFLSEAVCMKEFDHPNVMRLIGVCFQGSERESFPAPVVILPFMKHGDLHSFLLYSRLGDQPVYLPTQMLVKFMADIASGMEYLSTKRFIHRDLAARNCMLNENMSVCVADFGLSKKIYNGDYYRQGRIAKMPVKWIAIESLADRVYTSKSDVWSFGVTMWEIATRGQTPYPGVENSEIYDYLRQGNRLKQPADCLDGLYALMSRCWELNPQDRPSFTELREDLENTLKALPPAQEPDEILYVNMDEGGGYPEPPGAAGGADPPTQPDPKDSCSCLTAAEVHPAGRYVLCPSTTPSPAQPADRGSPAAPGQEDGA
T30 sequence (P42336 whole entry I800L): as the sequence (P42336 whole entry C420R) above, with R420C, I800L counted along it

`CC(C)NC(=O)COc1cccc(-c2nc(Nc3ccc4[nH]ncc4c3)c3ccccc3n2)c1` [KD025, 2-(3-(4-((1H-indazol-5-yl)amino)quinazolin-2-yl)phenoxy)-N-isopropylacetamide] was tested. Which remaining binding at 10 µM (BIKE) did it give?
Its remaining binding at 10 µM is 3.9%.

What about the remaining binding at 10 µM (PIP5K1A) of the same compound?
Its remaining binding at 10 µM is 6%.

What about the “Percent Control” value (FLT3(ITD,F691L)) of the same compound?
The value was 52%.

What about the remaining binding at 10 µM (AXL) of the same compound?
Its remaining binding at 10 µM is 66%.

What about the remaining binding at 10 µM (MST1R) of the same compound?
The remaining binding at 10 µM was 71%.

What about the remaining binding at 10 µM (ANKK1) of the same compound?
The remaining binding at 10 µM was 72%.

And the remaining binding at 10 µM (MST3)?
The remaining binding at 10 µM was 72%.

And the remaining binding at 10 µM (SIK)?
Its remaining binding at 10 µM is 72%.

What about the remaining binding at 10 µM (AMPK-alpha1) of the same compound?
The remaining binding at 10 µM was 76%.

What about the remaining binding at 10 µM (DCAMKL1) of the same compound?
Its remaining binding at 10 µM is 79%.

And the remaining binding at 10 µM (PAK2)?
The remaining binding at 10 µM was 79%.

And the remaining binding at 10 µM (ROS1)?
The remaining binding at 10 µM was 79%.

What about the remaining binding at 10 µM (CDC2L2) of the same compound?
Its remaining binding at 10 µM is 80%.

What about the remaining binding at 10 µM (WNK3) of the same compound?
The remaining binding at 10 µM was 82%.

What about the remaining binding at 10 µM (PKNB(M.tuberculosis)) of the same compound?
Its remaining binding at 10 µM is 83%.

What about the remaining binding at 10 µM (NIK) of the same compound?
The remaining binding at 10 µM was 84%.

And the remaining binding at 10 µM (PIK3CA(Q546K))?
Its remaining binding at 10 µM is 84%.

What about the remaining binding at 10 µM (BRAF) of the same compound?
Its remaining binding at 10 µM is 85%.

What about the remaining binding at 10 µM (PIK3CA(C420R)) of the same compound?
The remaining binding at 10 µM was 86%.

And the remaining binding at 10 µM (PHKG1)?
Its remaining binding at 10 µM is 87%.

And the remaining binding at 10 µM (WNK2)?
The remaining binding at 10 µM was 88%.

What about the remaining binding at 10 µM (BRSK1) of the same compound?
Its remaining binding at 10 µM is 93%.

What about the remaining binding at 10 µM (INSR) of the same compound?
The remaining binding at 10 µM was 94%.

What about the remaining binding at 10 µM (ASK2) of the same compound?
The remaining binding at 10 µM was 95%.

What about the remaining binding at 10 µM (BRSK2) of the same compound?
Its remaining binding at 10 µM is 95%.

And the remaining binding at 10 µM [1]?
Its remaining binding at 10 µM is 96%.

And the remaining binding at 10 µM (EPHB2)?
Its remaining binding at 10 µM is 96%.

And the remaining binding at 10 µM (DAPK2)?
The remaining binding at 10 µM was 100%.

And the remaining binding at 10 µM (HIPK3)?
The remaining binding at 10 µM was 100%.

And the remaining binding at 10 µM (ICK)?
The remaining binding at 10 µM was 100%.

What about the remaining binding at 10 µM (PIK3CA(I800L)) of the same compound?
The remaining binding at 10 µM was 100%.

What about the remaining binding at 10 µM [2] of the same compound?
Its remaining binding at 10 µM is 100%.

What about the remaining binding at 10 µM (SGK2) of the same compound?
Its remaining binding at 10 µM is 100%.

And the “expression of Pparg and Cebpa genes” value [3]?
The value was “suppressed”.
